This note sets out measurements from patent US8497269B2, “Phthalazine compounds as p38 map kinase modulators and methods of use thereof” (Amgen Inc., priority 2008, dated 2013).

In test [1] the test system is TNF-α induced IL-8 production in human whole blood. Kind of test: Inhibition of TNF-α induced IL-8 in 50% human whole blood. The format is cell-based. Conditions: 1 nM TNF-α, secreted IL-8, 16-18 hours, read-out: WB TNF/IL8 IC50. The protocol:
Inhibition of TNF-α Induced IL-8 in 50% Human Whole Blood
Test compounds were evaluated in vitro for the ability to inhibit the production of secreted IL-8 by whole blood activated with TNF-α. Fresh human whole blood was obtained from healthy, non-medicated volunteers in sodium heparin tubes.
Compound Dilution—Assay Procedure
Test compounds are serially diluted 1:3 in DMSO and then diluted 1:250 into R10 (RPMI 1640, 10% human serum AB, 1× pen/strep/glutamine) to the 4× working concentration to be used in the assay. 100 ul heparinized whole blood is plated into wells of 96 well flat bottom plates. 50 ul of either 4× compound or DMSO control (Final DMSO concentration is 0.1%) are added to the appropriate wells. Plates are incubated for 1 hour at 37 degrees Celsius. 50 ul of 4×TNF-α (4 nM TNF-α, for a final concentration of 1 nM) or control (media alone) is added to the appropriate wells (Total volume=200 ul). Plates are incubated overnight (16-18 hours). 100 ul of supernatant is collected and stored in 96-well round bottom polypropylene plates at −80 degrees Celsius or assayed immediately for IL-8.
Cytokines are measured on antibody (Ab) sandwich ECL based 96-well detection plates. 20 ul of supernatant are added to plate and plate is sealed and shaken at RT for 1 hour. 130 ul of detection Ab cocktail is added and plates are sealed and shaken for 1 hour in the dark at RT. Plates are read on MSD Sector HTS instrument. Data are analyzed and IC50 values generated using Activity Base and Xl-fit programs.

The next test deals with human p38α (Homo sapiens, UniProt Q16539). Kind of test: Purified and activated recombinant human p38α assay (HTRF). The format is biochemical. The note with it: 1 nM p38α, 50 μM ATP, 100 nM GST-ATF2-Avitag, 1 hour at RT, read-out: p38a IC50 IC50. The protocol: Purified and Activated Recombinant Human p38α Assay
Sequence of human p38α (Q16539 whole entry): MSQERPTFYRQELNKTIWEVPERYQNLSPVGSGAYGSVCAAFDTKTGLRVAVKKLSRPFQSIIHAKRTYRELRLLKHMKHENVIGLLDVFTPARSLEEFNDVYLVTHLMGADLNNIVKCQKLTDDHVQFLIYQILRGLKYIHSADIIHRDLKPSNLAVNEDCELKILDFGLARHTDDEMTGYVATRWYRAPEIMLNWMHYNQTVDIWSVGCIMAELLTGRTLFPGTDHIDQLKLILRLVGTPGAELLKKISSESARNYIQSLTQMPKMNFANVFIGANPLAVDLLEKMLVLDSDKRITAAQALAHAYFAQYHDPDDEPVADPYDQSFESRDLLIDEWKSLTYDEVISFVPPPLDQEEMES
Kinase Reaction Buffer: Kinase reaction buffer for p38α HTRF assays consists of 50 mM Tris-pH 7.5, 5 mM MgCl2, 0.1 mg/mL BSA, 100 μM Na3VO4 and 0.5 mM DTT.
HTRF Detection Buffer: HTRF detection buffer contains 100 mM HEPES-pH 7.5, 100 mM NaCl, 0.1% BSA, 0.05% Tween-20, and 10 mM EDTA.
Serial Dilution of Compounds: Compounds were dissolved in 100% DMSO and serially diluted (3 fold, 10 point) in a polypropylene 96-well microtiter plate (drug plate). The final starting concentration of compounds in the p38α enzymatic assays was 1 μM. Columns 6 and 12 (HI controls and LO controls respectively) in the drug plate were reserved as controls and contained only DMSO. Kinase Reaction: The p38α kinase reactions were carried out in a polypropylene 96-well black round bottom assay plate in total volume of 30 μL kinase reaction buffer. Appropriate concentration of purified and activated enzyme (recombinant human) was mixed with indicated concentration of ATP and 100 nM GST-ATF2-Avitag, in the presence or absence (HI control) of Compound. See table below for actual concentrations. In the absence of substrate, the background was measured as LO control. The reaction was allowed to incubate for 1 hour at RT. Assay Reagent Concentrations: The final reagent concentrations were 1 nM p38α and 50 μM ATP. […] After 60 minutes incubation at room temperature, the assay plate was read in a Discovery Plate Reader. The wells were excited with coherent 320 nm light and the ratio of delayed ([…] post excitation) emissions at […] (native europium fluorescence) and 665 nm (europium fluorescence transferred to allophycocyanin—an index of substrate phosphorylation) was determined (Park et al, 1999). Data Analysis: The proportion of substrate phosphorylated in the kinase reaction in the presence of compound compared with that phosphorylated in the presence of DMSO vehicle alone (HI control) was calculated using the formula: % control (POC)=(compound−average LO)/(average HI−average LO)*100. Data (consisting of POC and inhibitor concentration in μM) was fitted to a 4-parameter equation (y=A+((B−A)/(1+((x/C)^D))), where A is the minimum y (POC) value, B is the maximum y (POC), C is the x (compound concentration) at the point of inflection and D is the slope factor, using a Levenburg-Marquardt non-linear regression algorithm.
The inhibition constant (Ki) of the inhibitor was estimated from the IC50 (compound concentration at the point of inflection C) using the Cheng-Prussof equation: Ki=IC50/(1+S/Km), where S is the ATP substrate concentration, and Km is the Michaelis constant for ATP as determined experimentally. All results were expressed as the mean±the standard error of the mean. Data acquisition and non-linear regression algorithms were performed using Activity Base v5.2 and XL-fit software v4.1 respectively. All data was archived using Activity Base v5.2 software.

For the molecule `Cc1cc(F)ccc1-c1nncc2cc(Nc3ccc(F)cc3)ccc12` [Example 11, 1-(4-fluoro-2-methylphenyl)-N-(4-fluorophenyl)-6-phthalazinamine], the IC50 was found to be 1.5 nM in test [1] and 0.4 nM on human p38α.
Take `Cc1cc(F)ccc1-c1nncc2cc(Nc3ccccc3)ccc12` [Example 27, 1-(4-fluoro-2-methylphenyl)-N-phenyl-6-phthalazinamine]: the IC50 was found to be 2.7 nM in test [1] and 0.7 nM at human p38α.
Consider `Cc1cc(F)ccc1-c1nncc2cc(Nc3cccc(F)c3)ccc12` [Example 21, 1-(4-fluoro-2-methylphenyl)-N-(3-fluorophenyl)-6-phthalazinamine], for which the IC50 in test [1] stood at 3.2 nM; at human p38α, 0.5 nM.
Take “N-(4-fluorophenyl)-1-((2,2,2-trifluoro-1-methylethyl)oxy)-6-phthalazinamine [Example 23]”: the results for the IC50 (in test [1]; on human p38α) were 137 nM and 9.1 nM, respectively.
Regarding `Cc1cc(S(C)(=O)=O)ccc1-c1nncc2cc(Nc3ccc(F)cc3)ccc12` [Example 2, N-(4-Fluorophenyl)-1-(2-methyl-4-(methylsulfonyl)phenyl)phthalazin-6-amine], the IC50 in test [1] worked out at 0.8 nM; at human p38α it was 0.3 nM.
The like results for `Cc1ccccc1-c1nncc2cc(Nc3ccc(F)cc3F)ccc12` [Example 8, N-(2,4-difluorophenyl)-1-(2-methylphenyl)-6-phthalazinamine] were, in that order, 1.7 nM and 0.2 nM.
On the same counts, the results for `Cc1cccc(Nc2ccc3c(-c4ccc(F)cc4C)nncc3c2)n1` [Example 15, 1-(4-fluoro-2-methylphenyl)-N-(6-methyl-2-pyridinyl)-6-phthalazinamine] are 11.4 nM and 1.5 nM.
On to `Cc1cc(S(C)(=O)=O)ccc1-c1nncc2cc(Nc3ccc(F)cn3)ccc12` [Example 33, N-(5-fluoro-2-pyridinyl)-1-(2-methyl-4-(methylsulfonyl)phenyl)-6-phthalazinamine], for which the IC50 was 20 nM in test [1] and 0.8 nM at human p38α.
`Cc1cc(S(C)(=O)=O)ccc1-c1nncc2cc(Nc3ccc(F)cc3F)ccc12` [Example 10, N-(2,4-difluorophenyl)-1-(2-methyl-4-(methylsulfonyl)phenyl)-6-phthalazinamine]: the IC50 in test [1] stood at 0.5 nM; on human p38α, 0.3 nM.
Turning to `CC(c1nncc2cc(Nc3ccc(F)cc3)ccc12)C(F)(F)F` (stereo not shown) [Example 5, N-(4-Fluorophenyl)-1-(2,2,2-trifluoro-1-methylethyl)-6-phthalazinamine], the results for the IC50 (in test [1]; on human p38α) were 3.9 nM and 1 nM, respectively.
For `COc1ncccc1-c1nncc2cc(Nc3ccc(F)cc3)ccc12` [Example 28, N-(4-fluorophenyl)-1-(2-(methyloxy)-3-pyridinyl)-6-phthalazinamine], the IC50 in test [1] was determined as 1.6 nM; on human p38α, 0.9 nM.
Regarding `Cc1cc(F)ccc1-c1nncc2cc(Nc3cccc(F)c3C)ccc12` [Example 18, N-(3-fluoro-2-methylphenyl)-1-(4-fluoro-2-methylphenyl)-6-phthalazinamine], the IC50 came out at 1.8 nM in test [1] and 0.3 nM at human p38α.
For `Cc1cc(F)ccc1-c1nncc2cc(Nc3ncccc3C)ccc12` [Example 14, 1-(4-fluoro-2-methylphenyl)-N-(3-methyl-2-pyridinyl)-6-phthalazinamine], the IC50 in test [1] came out at 6.6 nM; on human p38α it was 0.7 nM.
With `Cn1nccc1-c1nncc2cc(Nc3ccc(F)cc3)ccc12` [Example 32, N-(4-fluorophenyl)-1-(1-methyl-1H-pyrazol-5-yl)-6-phthalazinamine], the IC50 in test [1] amounted to 4.9 nM; at human p38α, 1 nM.
Consider `Cc1ccc(F)cc1Nc1ccc2c(-c3ccc(F)cc3C)nncc2c1` [Example 3, 1-(4-Fluoro-2-methylphenyl)-N-(5-fluoro-2-methylphenyl)phthalazin-6-amine], for which the IC50 in test [1] was found to be 3.5 nM; on human p38α, 0.5 nM.
The like results for `Cc1noc(C)c1-c1nncc2cc(Nc3ccc(F)cc3)ccc12` [Example 30, 1-(3,5-dimethyl-4-isoxazolyl)-N-(4-fluorophenyl)-6-phthalazinamine] were, in that order, 4.9 nM and 0.9 nM.
As to `Cc1cc(F)ccc1-c1nncc2cc(Nc3ccccn3)ccc12` [Example 16, 1-(4-fluoro-2-methylphenyl)-N-2-pyridinyl-6-phthalazinamine], the results for the IC50 (in test [1]; at human p38α) were 16.1 nM and 1.6 nM, respectively.
In the case of `CC(C)c1nncc2cc(Nc3ccc(F)cc3F)ccc12` [Example 7, N-(2,4-Difluorophenyl)-1-isopropylphthalazin-6-amine], the IC50 in test [1] turned out to be 2.4 nM; at human p38α, 0.4 nM.
Regarding `Cc1cc(S(C)(=O)=O)c(Cl)cc1-c1nncc2cc(Nc3ccc(F)cc3)ccc12` [Example 25, 1-(5-chloro-2-methyl-4-(methylsulfonyl)phenyl)-N-(4-fluorophenyl)-6-phthalazinamine], the IC50 is 4.5 nM in test [1] and 0.7 nM on human p38α.
On the same counts, the results for `Cc1ncccc1-c1nncc2cc(Nc3ccc(F)cc3)ccc12` [Example 29, N-(4-fluorophenyl)-1-(2-methyl-3-pyridinyl)-6-phthalazinamine] are 1.8 nM and 0.7 nM.
`Cc1cccc(Nc2ccc3c(-c4ccc(F)cc4C)nncc3c2)c1` [Example 19, 1-(4-fluoro-2-methylphenyl)-N-(3-methylphenyl)-6-phthalazinamine]: the IC50 in test [1] is 2.2 nM; at human p38α it was 0.3 nM.
On to `Cc1cc(F)ccc1-c1nncc2cc(Sc3cccc(F)c3)ccc12` [Example 4, 1-(4-Fluoro-2-methylphenyl)-6-(3-fluorophenylthio)phthalazine], for which the values for the IC50 (in test [1]; on human p38α) were 66.9 nM and 1 nM, respectively.
The like results for `C[C@H](Oc1nncc2cc(Nc3ccc(F)cc3F)ccc12)C(F)(F)F` [Example 6b, N-(2,4-difluorophenyl)-1-(((1S)-2,2,2-trifluoro-1-methylethyl)oxy)-6-phthalazinamine] were, in that order, 89 nM and 4.6 nM.
On to `Cc1cc(S(C)(=O)=O)c(Cl)cc1-c1nncc2cc(Nc3ccc(F)cc3F)ccc12` [Example 26, 1-(5-chloro-2-methyl-4-(methylsulfonyl)phenyl)-N-(2,4-difluorophenyl)-6-phthalazinamine], for which the results for the IC50 (in test [1]; on human p38α) were 4.2 nM and 0.7 nM, respectively.
Consider `Cc1cc(F)ccc1-c1nncc2cc(Nc3ccc(F)cc3C(F)(F)F)ccc12` [Example 13, 1-(4-fluoro-2-methylphenyl)-N-(4-fluoro-2-(trifluoromethyl)phenyl)-6-phthalazinamine], for which the IC50 in test [1] stood at 9.9 nM; at human p38α it was 0.5 nM.
In the case of `Cc1cc(F)ccc1Nc1ccc2c(-c3ccc(F)cc3C)nncc2c1` [Example 20, N,1-bis(4-fluoro-2-methylphenyl)-6-phthalazinamine], the IC50 is 1.8 nM in test [1] and 0.3 nM at human p38α.
